One experiment deals with Male NMRI mice. The experiment in a line: Mouse tetrad model, antagonistic activity against Win 55212-2. In kind it is in vivo. To be noted: against Win 55212-2 (1.25 mg/kg intravenous), substance injected 5 minutes before the agonist, tetrad component not specified. The source says:
Substances with affinity for cannabinoid receptors are known to produce a wide range of pharmacological effects. It is also known that intravenous administration of a substance with affinity for cannabinoid receptors in mice produces analgesia , hypothermia, sedation and catalepsy. Individually, none of these effects can be considered as proof that a tested substance has affinity for cannabinoid-receptors, since all of these effects are common for various classes of centrally active agents. However, substances, which show all of these effects, i.e. substances that are active in this so-called tetrad model are considered to have affinity for the cannabinoid receptors. It has further been shown that cannabinoid receptor antagonists are higly effective in blocking the effects of a cannabinoid agonist in the mouse tetrad model.
The tetrad model is described, for example, in the publication of A. C. Howlett et al, International Union of Pharmacology XXVII. […]
Before testing in the behavioral procedures given below, mice are acclimatized to the experimental setting. Pre-Treatment control values are determined for analgesia hot plate latency (in seconds), rectal temperature, sedation and catalepsy.
In order to determine the agonistic activty of the substance to be tested, the mice are injected intravenously with the substance to be tested or the vehicle alone. 15 minutes after injection, latency in hot plate analgesia is measured. Rectal temperature, sedation and catalepsy are measured 20 minutes after injection.
In order to determine the antagonistic activity the identical procedure is used as for the determination of the agonistic effects, but with the difference that the substance to be evaluated for its antagonistic activity is injectected 5 minutes before the intravenous injection of 1.25 mg/kg Win-55,212 a known cannabinoid-receptor agonist.
The hot plate analgesia is determined according to the method described in Woolfe D. et al. "The evaluation of analgesic action of pethidine hydrochloride (Demerol)", J. Pharmacol. Exp. Ther. 80, 300-307,1944. […]

For a further experiment, the target named is T1, CB1-Receptor (Homo sapiens, UniProt P21554).
T1 construct: purchased Receptor Biology, Inc
T1 sequence (P21554 whole entry): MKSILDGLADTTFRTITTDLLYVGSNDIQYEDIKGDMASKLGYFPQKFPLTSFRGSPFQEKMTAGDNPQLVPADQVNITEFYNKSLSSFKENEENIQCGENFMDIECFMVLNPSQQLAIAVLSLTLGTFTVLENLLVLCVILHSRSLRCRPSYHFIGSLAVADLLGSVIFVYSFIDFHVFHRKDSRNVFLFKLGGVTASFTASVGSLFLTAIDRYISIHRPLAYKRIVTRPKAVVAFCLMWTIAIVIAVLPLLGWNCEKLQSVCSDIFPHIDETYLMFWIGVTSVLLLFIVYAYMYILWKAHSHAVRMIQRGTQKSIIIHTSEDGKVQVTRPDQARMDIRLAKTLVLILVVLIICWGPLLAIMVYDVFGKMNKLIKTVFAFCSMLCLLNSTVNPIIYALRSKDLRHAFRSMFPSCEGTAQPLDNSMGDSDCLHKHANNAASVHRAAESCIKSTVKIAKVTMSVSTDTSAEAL
Briefly: In-vitro determination of affinity to CB1 receptor (radioligand binding). As to conditions: transfected human CB1 receptors of Receptor Biology, Inc.; radioligand [^3H]-CP55940; read-out: CB1-Receptor Radiologand:[^3H]-CP55940 IC50. Here is the method:
The in-vitro determination of the affinity of the inventive quaternary ammonium salts of substituted pyrazoline compounds to CB1/CB2-Rezeptors is carried out as described in the publication of Ruth A. Ross, Heather C. Brockie et al., "Agonist-inverse agonist characterization at CB1 and CB2 cannabinoid receptors of L-759633, L759656 and AM630", British Journal of Pharmacology, 126, 665-672, (1999), whereby the transfected human CB1 and CB2 receptors of Receptor Biology, Inc. are used. The radioligand used for both receptors is [^3H]-CP55940. The respective parts of the description are hereby incorporated by reference and forms part of the present disclosure.

pIC50: −log10 of the molar value.

A word on the pIC50: it is −log10 of the IC50, conventionally taken in molar units. Take `O=C(NN1CCCCCC1)C1=NN(c2ccc(Cl)cc2Cl)C(c2ccc(Cl)cc2)C1` (centres unmarked) [Example 1, N-(azepan-1-yl)-5-(4-chlorophenyl)-1-(2,4-dichlorophenyl)-4,5-dihydro-1H-pyrazole-3-carboxamide]: the “Antagonistic Effect in (%)” value in the experiment with Male NMRI mice came to 116±2%. Also, the pIC50 at CB1-Receptor was 7.60.

`O=C(NN1CCCCCC1)C1=NN(c2ccc(Cl)cc2Cl)[C@@H](c2ccc(Cl)cc2)C1` [Example 2, (R)-N-(azepan-1-yl)-5-(4-chlorophenyl)-1-(2,4-dichlorophenyl)-4,5-dihydro-1H-pyrazole-3-carboxamide]: in the experiment with Male NMRI mice, the “Antagonistic Effect in (%)” value is reported as 137.2%. The negative-log IC50 (pIC50) on CB1-Receptor is 8.10.

Consider `O=C(NN1CCCCCC1)C1=NN(c2ccc(Cl)cc2Cl)C(c2ccc(Br)cc2)C1` (centres unmarked) [Example 4, N-(azepan-1-yl)-5-(4-bromophenyl)-1-(2,4-dichlorophenyl)-4,5-dihydro-1H-pyrazole-3-carboxamide], for which the “Antagonistic Effect in (%)” value with Male NMRI mice was 100±6%.

Source of the values: EP1849776A1, “Azepane- or Azocane-substituted pyrazoline compounds, their preparation and use as medicaments” (LABORATORIOS DEL DR. ESTEVE, S.A., priority 2006, dated 2007).
